Measured values published in patent publication US9157054B2, “Device and method for preparing microparticles” (The University of Queensland, priority 2007, dated 2015).
In brackets after ≈: the same amount, converted by molar mass. Several values for one entry are separate records, joined by “and”; a condition that tells them apart may be missing. Identical values can stand only once.

Key:
[1] = Particle size by optical microscopy; type: physicochemical
Text: Alginate gel microparticles were examined using an optical microscope (Zeiss, AXIOSCOP 40) with […] attachment (AXIOCam MRm). The morphology and particle size of GS-loaded alginate microparticles were characterized according to the methods described above. The morphology of insulin-loaded alginate gel microparticles and the particle size were characterized according to the methods described above. The morphology and particle size was characterized according to the methods described above.

[2] = British Pharmacopoeia 2008; cited from earlier work
physchem = settings: aqueous buffer

- powder particle size ([1]; 'as received' powder, before size reduction): 30-100 micron and 30-40 micron
- crystal / powder particle size ([1]; after precipitation from acetone into alginate solution, optical microscope): 10-15 microns
- solubility (physchem): 300 µg/mL (≈ 1450 µM)
Compound: CC(C)Cc1ccc(C(C)C(=O)O)cc1 (centres unmarked) [ibuprofen]
- solubility in acetone, methanol and dichloromethane (DCM) [2]: freely soluble
- solubility in water [2]: practically insoluble
